Results from patent US8765765B2, “Metabolites of (thio) carbamoyl-cyclohexane derivatives” (Richter Gedeon Nyrt., priority 2007, dated 2014).

Assays:
[1] = molecular target: Alpha-1 receptor (rat brain cortical membrane preparation); test: Alpha-1 receptor binding, [3H]-prasosin; conditions: rat brain cortical membranes, [3H]-prasosin 0.5 nM
Experimental: 3. Alpha-1 Receptor Binding
Alpha-1 receptor binding study was performed according to the method described by Greengrass and Bremmer (European Journal of Pharmacology 55:323-326, 1979) on rat brain cortical membrane preparation using [^3H]-prasosin (0.5 nM) as ligand. The non-specific binding was determined in the presence of 10 μM phentolamine.

[2] = molecular target: T1, D2 receptor (rat brain striatal membrane preparation) (Rattus norvegicus, UniProt P61169); test: D2 receptor binding, [3H]-spiperone; conditions: rat brain striatal membranes, [3H]-spiperone 0.6 nM; read-out: rD2 Ki
T1 construct: on rat brain striatal membrane preparation; from tissue; host or cells: rat brain striatum membranes
Experimental: D2 receptor binding assay was carried out as described by Creese et al., European Journal of Pharmacology, 60, 55-66, 1979) on rat brain striatal membrane preparation using [^3H]-spiperone (0.6 nM) as ligand. The non-specific binding was determined in the presence of 1 μM (+)-butaclamol.

[3] = molecular target: T2, rat recombinant D3 receptors (expressed in Sf9 cells) (Rattus norvegicus, UniProt P19020); test: D3 receptor binding, [3H]-spiperone; conditions: rat recombinant D3, [3H]-spiperone 0.85 nM; read-out: rD3 Ki
T2 construct: purchased Packard BioScience, BioSignal Packard Inc. 6110139; host or cells: Sf9 cells
Experimental: Binding assays were carried out on rat recombinant D3 receptors (expressed in Sf9 cells) according to the supplier instructions (Packard BioScience, BioSignal Packard Inc. Cat. No. 6110139, Technical Data Sheet) using [^3H]-spiperone (0.85 nM) as ligand and haloperidol (10 μM) for determination of non-specific binding.

dopamine D3/D2 receptor = conditions: background statement; cited from earlier work
histamine H1 = histamine H1 (Homo sapiens, UniProt P35367); conditions: background statement; cited from earlier work
5-HT2C = 5-HT2C (Homo sapiens, UniProt P28335); conditions: background statement; cited from earlier work
[4] = system: adrenergic receptor sites; conditions: background statement; cited from earlier work

T1 sequence (P61169 whole entry): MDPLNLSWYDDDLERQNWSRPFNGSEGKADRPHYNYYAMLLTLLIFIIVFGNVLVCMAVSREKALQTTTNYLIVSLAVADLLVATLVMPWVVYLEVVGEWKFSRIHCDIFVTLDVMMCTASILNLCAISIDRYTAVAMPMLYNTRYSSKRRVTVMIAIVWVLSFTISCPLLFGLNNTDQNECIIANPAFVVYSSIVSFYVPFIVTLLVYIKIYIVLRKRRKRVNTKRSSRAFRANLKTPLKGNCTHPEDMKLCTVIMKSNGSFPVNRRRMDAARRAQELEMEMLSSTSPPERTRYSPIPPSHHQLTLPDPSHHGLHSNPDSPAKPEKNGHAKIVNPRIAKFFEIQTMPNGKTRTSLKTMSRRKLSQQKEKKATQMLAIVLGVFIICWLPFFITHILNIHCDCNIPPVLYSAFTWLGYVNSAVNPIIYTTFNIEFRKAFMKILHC
T2 sequence (P19020 whole entry): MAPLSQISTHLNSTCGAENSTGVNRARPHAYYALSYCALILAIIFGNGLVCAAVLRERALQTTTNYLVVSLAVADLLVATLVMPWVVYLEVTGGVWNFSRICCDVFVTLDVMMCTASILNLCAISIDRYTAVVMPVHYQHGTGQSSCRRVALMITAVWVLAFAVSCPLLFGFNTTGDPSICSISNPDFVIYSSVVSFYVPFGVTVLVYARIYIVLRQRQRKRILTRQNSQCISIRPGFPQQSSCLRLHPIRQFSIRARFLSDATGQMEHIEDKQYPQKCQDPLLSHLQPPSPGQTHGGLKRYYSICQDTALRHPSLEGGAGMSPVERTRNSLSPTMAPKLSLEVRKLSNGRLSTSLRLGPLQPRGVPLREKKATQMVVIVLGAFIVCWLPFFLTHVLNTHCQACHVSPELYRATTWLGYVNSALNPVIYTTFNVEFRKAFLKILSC
Sequence of histamine H1 (P35367 whole entry): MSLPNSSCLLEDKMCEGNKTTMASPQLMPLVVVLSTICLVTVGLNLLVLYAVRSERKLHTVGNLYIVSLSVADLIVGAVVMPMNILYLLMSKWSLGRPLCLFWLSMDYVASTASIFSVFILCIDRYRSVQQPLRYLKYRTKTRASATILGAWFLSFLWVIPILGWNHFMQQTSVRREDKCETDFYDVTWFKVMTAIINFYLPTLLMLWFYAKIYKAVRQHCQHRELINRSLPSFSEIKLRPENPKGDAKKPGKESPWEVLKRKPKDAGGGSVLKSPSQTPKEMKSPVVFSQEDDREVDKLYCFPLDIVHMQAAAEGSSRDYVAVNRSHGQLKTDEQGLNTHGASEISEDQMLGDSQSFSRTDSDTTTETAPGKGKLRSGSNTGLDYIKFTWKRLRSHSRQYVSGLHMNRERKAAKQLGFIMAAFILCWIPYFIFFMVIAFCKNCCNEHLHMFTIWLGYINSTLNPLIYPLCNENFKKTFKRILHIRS
Sequence of 5-HT2C (P28335 33-458, species assumed): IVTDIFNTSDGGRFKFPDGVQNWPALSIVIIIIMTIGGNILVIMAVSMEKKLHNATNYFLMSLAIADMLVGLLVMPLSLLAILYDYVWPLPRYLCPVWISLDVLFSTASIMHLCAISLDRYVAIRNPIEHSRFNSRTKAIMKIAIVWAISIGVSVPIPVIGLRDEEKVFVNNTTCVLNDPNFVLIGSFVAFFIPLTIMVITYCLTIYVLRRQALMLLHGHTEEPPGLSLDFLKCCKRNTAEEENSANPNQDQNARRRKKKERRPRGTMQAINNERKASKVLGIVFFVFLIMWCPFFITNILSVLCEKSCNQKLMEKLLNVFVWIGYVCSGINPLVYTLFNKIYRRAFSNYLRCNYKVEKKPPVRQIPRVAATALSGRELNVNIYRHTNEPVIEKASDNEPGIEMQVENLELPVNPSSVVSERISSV

Compound | Ki [1] [nM] | Ki [2] [nM] | Ki [3] [nM] | D3 receptor antagonism relative to D2 receptor antagonism (dopamine D3/D2 receptor) | potency at histamine H1 receptor site (histamine H1) | potency at 5-HT2C receptor site (5-HT2C) | potency at adrenergic receptor sites [4]
CN(C)C(=O)N[C@H]1CC[C@H](CC[N+]2([O-])CCN(c3cccc(Cl)c3Cl)CC2)CC1 [Compound D, Trans-1-{4-[2-[4-(2,3-dichlorophenyl)-1-oxo-piperazin-1-yl]-ethyl]-cyclohexyl}-3,3-dimethyl-urea] | > 1000 | > 100 | > 10 |  |  |  | 
NC(=O)N[C@H]1CC[C@H](CCN2CCN(c3ccc(O)c(Cl)c3Cl)CC2)CC1 [Compound A, Trans-1-{4-[2-[4-(2,3-dichloro-4-hydroxy-phenyl)-piperazin-1-yl]-ethyl]-cyclohexyl}-urea] | > 1000 | 8.4 | 0.26 |  |  |  | 
CN(C)C(=O)NC1CCC(CCN2CCN(c3cccc(Cl)c3Cl)CC2)CC1.Cl (stereo not drawn) [trans-4-{2-[4-(2,3-dichlorophenyl)-piperazin-1-yl]-ethyl}-N,N-dimethylcarbamoyl-cyclohexylamine hydrochloride] |  |  |  | about one order of magnitude greater | low potency | low potency | low potency
CNC(=O)N[C@H]1CC[C@H](CCN2CCN(c3ccc(O)c(Cl)c3Cl)CC2)CC1 [Compound B, Trans-1-{4-[2-[4-(2,3-dichloro-4-hydroxy-phenyl)-piperazin-1-yl]-ethyl]-cyclohexyl}-3-methyl-urea] | > 1000 | 2.49 | 0.24 |  |  |  | 
CN(C)C(=O)N[C@H]1CC[C@H](CCN2CCN(c3ccc(O)c(Cl)c3Cl)CC2)CC1 [Compound C, Trans-1-{4-[2-[4-(2,3-dichloro-4-hydroxy-phenyl)-piperazin-1-yl]-ethyl]-cyclohexyl}-3,3-dimethyl-urea] | > 1000 | 80.5 | 0.37 |  |  |  | 
